Measurements: patent publication US20250136596A1, “MEMBRANE-ASSOCIATED TYROSINE- AND THREONINE-SPECIFIC CDC2-INHIBITORY KINASE (PKMYT1) INHIBITORS AND USES THEREOF” (Insilico Medicine IP Limited, priority 2022, published 2025)

Target: PKMYT1 (Homo sapiens (Human), UniProt Q99640)
Experiment: PKMYT1 HTRF Assay
Type: binding
Details: Tracer 178, GST-Tb; compound 10 μM to 0.5 nM; read-out: MYT1 HTRF IC50
In short: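 Compound (final 10 μM to 0.5 nM) preincubated with PKMYT1 enzyme 15 min at 25° C, then Tracer 178 added for 60 min at 25° C. GST-Tb added, 15 min at 25° C, before HTRF readout.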

Chain of PKMYT1 (Q99640 whole entry): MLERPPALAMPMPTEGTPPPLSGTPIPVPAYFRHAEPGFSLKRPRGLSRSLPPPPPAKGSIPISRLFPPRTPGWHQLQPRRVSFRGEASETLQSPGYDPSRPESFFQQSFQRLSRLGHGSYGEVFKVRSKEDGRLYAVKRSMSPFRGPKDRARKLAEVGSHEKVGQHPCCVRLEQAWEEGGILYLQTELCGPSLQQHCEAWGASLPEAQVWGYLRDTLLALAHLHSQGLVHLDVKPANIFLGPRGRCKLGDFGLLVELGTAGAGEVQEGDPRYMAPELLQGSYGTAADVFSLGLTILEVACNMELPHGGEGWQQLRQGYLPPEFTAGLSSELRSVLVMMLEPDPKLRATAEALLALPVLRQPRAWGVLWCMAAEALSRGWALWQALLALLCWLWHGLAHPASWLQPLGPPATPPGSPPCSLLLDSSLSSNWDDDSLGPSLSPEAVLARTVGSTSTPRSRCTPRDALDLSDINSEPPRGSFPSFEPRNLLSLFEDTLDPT

Compound	IC50
Cc1ncc(-c2nc3cc(-c4c(C)ccc(O)c4C)cnc3[nH]2)cn1 [Example 114, 2,4-dimethyl-3-(2-(2-methylpyrimidin-5-yl)-3H-imidazo[4,5-b]pyridin-6-yl)phenol]	50 to 500 nM
Cc1ccc(O)c(C)c1-c1cnc2[nH]c(-c3cnc(NC4CC4)s3)nc2c1 [Example 115, 3-(2-(2-(cyclopropylamino)thiazol-5-yl)-3H-imidazo[4,5-b]pyridin-6-yl)-2,4-dimethylphenol]	50 to 500 nM
Cc1ccc(O)c(C)c1-c1cnc2[nH]c(-c3cnc(N)nc3)nc2c1C#N [Example 116, (S)-2-(2-aminopyrimidin-5-yl)-6-(3-hydroxy-2,6-dimethylphenyl)-3H-imidazo[4,5-b]pyridine-7-carbonitrile]	< 10 nM
Cc1ccc(O)c(C)c1-c1cnc2[nH]c(-c3cnn(CC(C)(C)O)c3)cc2c1C#N [Example 117, (S)-5-(3-hydroxy-2,6-dimethylphenyl)-2-(1-(2-hydroxy-2-methylpropyl)-1H-pyrazol-4-yl)-1H-pyrrolo[2,3-b]pyridine-4-carbonitrile]	< 10 nM
Cc1ccc(O)c(C)c1-c1cnc2[nH]c(-c3cnn(C)c3)cc2c1C#N [Example 118, (S)-5-(3-hydroxy-2,6-dimethylphenyl)-2-(1-methyl-1H-pyrazol-4-yl)-1H-pyrrolo[2,3-b]pyridine-4-carbonitrile]	< 10 nM
Cc1ccc(O)c(C)c1-c1cnc2[nH]c(-c3cnoc3)cc2c1C#N [Example 119, (S)-5-(3-hydroxy-2,6-dimethylphenyl)-2-(isoxazol-4-yl)-1H-pyrrolo[2,3-b]pyridine-4-carbonitrile]	< 10 nM
Cc1ccc(O)c(C)c1-c1cnc2[nH]c(-c3cc[nH]n3)cc2c1C#N [Example 120, (S)-5-(3-hydroxy-2,6-dimethylphenyl)-2-(1H-pyrazol-3-yl)-1H-pyrrolo[2,3-b]pyridine-4-carbonitrile]	< 10 nM
Cc1ccc(O)c(C)c1-c1cnc2[nH]c(-n3cncn3)cc2c1C#N [Example 121, (S)-5-(3-hydroxy-2,6-dimethylphenyl)-2-(1H-1,2,4-triazol-1-yl)-1H-pyrrolo[2,3-b]pyridine-4-carbonitrile]	< 10 nM
Cc1ccc(O)c(C)c1-c1cnc2[nH]c(-n3ccnc3)cc2c1C#N [Example 122, (S)-5-(3-hydroxy-2,6-dimethylphenyl)-2-(1H-imidazol-1-yl)-1H-pyrrolo[2,3-b]pyridine-4-carbonitrile]	< 10 nM
Cc1ccc(O)c(C)c1-c1cnc2[nH]c(-c3cnc4[nH]ncc4c3)cc2c1C#N [Example 123, (S)-5-(3-hydroxy-2,6-dimethylphenyl)-2-(1H-pyrazolo[3,4-b]pyridin-5-yl)-1H-pyrrolo[2,3-b]pyridine-4-carbonitrile]	< 10 nM
Cc1ccc(O)c(C)c1-c1cnc2[nH]c(-c3cnc[nH]3)cc2c1C#N [Example 125, (S)-5-(3-hydroxy-2,6-dimethylphenyl)-2-(1H-imidazol-5-yl)-1H-pyrrolo[2,3-b]pyridine-4-carbonitrile]	< 10 nM
Cc1ccc(O)c(C)c1-c1cnc2[nH]c(-c3cnc(N)s3)cc2c1C#N [Example 126, (S)-2-(2-aminothiazol-5-yl)-5-(3-hydroxy-2,6-dimethylphenyl)-1H-pyrrolo[2,3-b]pyridine-4-carbonitrile]	< 10 nM
Cc1ccc(O)c(C)c1-c1cnc2[nH]c(-c3cnc(N)nn3)cc2c1C#N [Example 127, (S)-2-(3-amino-1,2,4-triazin-6-yl)-5-(3-hydroxy-2,6-dimethylphenyl)-1H-pyrrolo[2,3-b]pyridine-4-carbonitrile]	< 10 nM
Cc1ccc(O)c(C)c1-c1cnc2[nH]c(-c3cnc(N4C[C@@H]5C[C@H]4CO5)nc3)cc2n1 [Example 128, 3-(6-(2-((1S,4S)-2-oxa-5-azabicyclo[2.2.1]heptan-5-yl)pyrimidin-5-yl)-5H-pyrrolo[2,3-b]pyrazin-2-yl)-2,4-dimethylphenol]	< 10 nM
Cc1ccc(O)c(C)c1-c1cnc2[nH]c(-c3cnc(CN)nc3)cc2c1C#N [Example 129, (S)-2-(2-(aminomethyl)pyrimidin-5-yl)-5-(3-hydroxy-2,6-dimethylphenyl)-1H-pyrrolo[2,3-b]pyridine-4-carbonitrile]	< 10 nM
Cc1ccc(O)c(C)c1-c1cnc2[nH]c(-c3cnc(N)c(C#N)c3)cc2c1C#N [Example 130, (S)-2-(6-amino-5-cyanopyridin-3-yl)-5-(3-hydroxy-2,6-dimethylphenyl)-1H-pyrrolo[2,3-b]pyridine-4-carbonitrile]	< 10 nM
Cc1ccc(O)c(C)c1-c1cnc2[nH]c(-c3cnn(CCCO)c3)cc2c1C#N [Example 131, (S)-5-(3-hydroxy-2,6-dimethylphenyl)-2-(1-(3-hydroxypropyl)-1H-pyrazol-4-yl)-1H-pyrrolo[2,3-b]pyridine-4-carbonitrile]	< 10 nM
Cc1ccc(O)c(C)c1-c1cnc2[nH]c(-n3cc(N)cn3)cc2c1C#N [Example 133, (S)-2-(4-amino-1H-pyrazol-1-yl)-5-(3-hydroxy-2,6-dimethylphenyl)-1H-pyrrolo[2,3-b]pyridine-4-carbonitrile]	< 10 nM
Cc1ccc(O)c(C)c1-c1cnc2[nH]c(-c3cn[nH]c(=O)c3)cc2c1C#N [Example 134]	< 10 nM
Cc1ccc(O)c(C)c1-c1cnc2[nH]c(-c3nnc[nH]3)cc2c1C#N [Example 135, 5-(3-hydroxy-2,6-dimethylphenyl)-2-(4H-1,2,4-triazol-3-yl)-1H-pyrrolo[2,3-b]pyridine-4-carbonitrile]	< 10 nM
